According to patent US5556849A, “Ruthenium containing phthalocyanin photosensitizers” (priority 1991, dated 1996):
pIC50: −log10 of the molar value.

Key:
[1] = tested on: Adherent cells (HeLa RCA. SKOV OVCAR); test: Phototoxicity (Light): 3H-thymidine incorporation in adherent cells after irradiation, with dark cytotoxicity for PI; type: cell-based; conditions: for PI (phototoxicity index): ratio of PC50 to cytotoxic concentration 50% (no light); for PC50 (phototoxic concentration 50%) / pIC50: with light dose, 50% reduction in cancer cell growth vs untreated control, 24 h incubation with sensitizer; for pIC50: read-out: PC50 (phototoxic concentration 50%)
Procedure: The media is removed and the cells washed three times with D-PBS. and then covered with D-PBS (200 μl ) and exposed to light from the same source used in the singlet oxygen assay.
This follows the procedure for phototoxicity except that the cells are never exposed to light. The assay is relative to a non-treated control.
(§1) Compounds according to the invention were assessed and characterised by their light absorption maxima, and their molar extinction coefficients according to conventional test procedures. Most of the compound were tested for their biological activity according to conventional test procedures in the art. The PC50 represents phototoxic concentration 50%. which is the concentration of compound when exposed to a light dose as described herein, causes a 50% reduction in cancer cell growth vs an untreated control population. The phototoxicity index. PI, is the ratio of the PC50 to the cytotoxic concentration 50%. where the growth is reduced by 50% without a light dose being given.
PC50 is determined by a relatively simple in vitro assay on a cellular level, which is generally indicative of photosensitizing activity.

[2] = Light absorption maxima and molar extinction coefficients; type: physicochemical
Procedure: as §1

normal rat liver = test: Photodynamic threshold dose in normal rat liver, depth of necrosis; type: in vivo, adult Wistat rats
Procedure: The photodynamic threshold dose in normal rat liver was used as a model. This has been developed by Singh and Wilson at McMaster University and used to study both chloroaluminum phthalocyanine sulfonate (ASPc) and photofrin (Patterson, M S, et at, Photochern Photobiol, 51,343-349, 1990, and Farrell, T J, et at, Proc SPIE1426, 146-155, 1991).
1. Inject compound at 2.5 mg/ml into tail vein of adult Wistat rats at doses of 5, 10.20 mg/kg.
2. 24 hours later expose liver by laparotomy and irradiate surface at up to four locations with a 5 mm diameter lightbeam from an argon-dye laser operating at 650 nm: incident power =40 m Watt: incident fluenee rate =200 mW cm^-2 : treatment time =5 or 10 minutes (60. 120 Joules cm^-2).
3. 24 hours later inject Evans Blue iv, sacrifice at 15 minutes, section Liver through each radiation spot and measure depth of necrosis as indicated by dye exclusion.

[3] = Singlet oxygen generation by photo-degradation of nitrosoanaline dye; conditions: 15 minutes of irradiation, 4° C.

Row | Compound | PI (phototoxicity index) [1] | ε (molar extinction coefficient) [2] [M⁻¹ cm⁻¹] | λmax Q ([2]; in water (W)) | pIC50 [1] | further results
1 | O.O.O.O.O=S(=O)([O-])CCc1cc[n+]([Ru-2]2([n+]3ccc(CCS(=O)(=O)[O-])cc3)[n]3c4c5ccccc5c3N=C3N=C(N=c5c6ccccc6c([n]52)=NC2=NC(=N4)c4ccccc42)c2ccccc23)cc1.[K+].[K+] [RuPc(PES)2 (Ex 2), K2 [Ru(Pc)bis(4-pyridineethanesulfonate)]tetrahydrate] | 1 | 72500 | 632 |  | PC50 (phototoxic concentration 50%) [1]: Inactive
2 | O=C(O)c1cccnc1.O=C(O)c1cccnc1.c1cnc2c(n1)C1=NC2=Nc2c3nccnc3c3[n]2[Ru][n]2c(c4nccnc4c2=NC2=NC(=N3)c3nccnc32)=N1 [RupyrPc(Nic)2] | 1 | 45100 | 625 |  | PC50 (phototoxic concentration 50%) [1]: Inactive
3 | O=S(=O)([O-])c1cccc(P(c2cccc(S(=O)(=O)[O-])c2)c2cccc(S(=O)(=O)[O-])c2)c1.O=S(=O)([O-])c1cccc(P(c2cccc(S(=O)(=O)[O-])c2)c2cccc(S(=O)(=O)[O-])c2)c1.[Na+].[Na+].[Na+].[Na+].[Na+].[Na+].c1ccc2cc3c(cc2c1)C1=NC2=NC(=Nc4c5cc6ccccc6cc5c5[n]4[Ru][n]4c(c6cc7ccccc7cc6c4=N5)=NC3=N1)c1cc3ccccc3cc12 [RuNc(TPPTS)2] |  |  | 720 | < 4.00 | 
4 | K2 [Ru(Pc)bis(triphenvlphosphine monosulfonate)]trihydrate [Compound A] | > 100 | 88200 | 650 | 5.94 | depths of necrosis compared with previously studied agents (normal rat liver; at similar drug and light levels, Photofrin and AlSPc given ip): comparable to those with previously studied agents; Depth of Necrosis (normal rat liver; dose 5 mg/kg iv, fluence 60 J cm^-2, 650 nm): 1.86 ± 0.34 mm; Depth of Necrosis (normal rat liver; dose 5 mg/kg iv, fluence 120 J cm^-2, 650 nm): 2.5 ± 0.0 mm; Depth of Necrosis (normal rat liver; dose 10 mg/kg iv, fluence 60 J cm^-2, 650 nm): 2.16 ± 0.10 mm; Depth of Necrosis (normal rat liver; dose 10 mg/kg iv, fluence 120 J cm^-2, 650 nm): 2.41 ± 0.16 mm; Depth of Necrosis (normal rat liver; dose 20 mg/kg iv, fluence 60 J cm^-2, 650 nm): 1.66 ± 0.05 mm; Depth of Necrosis (normal rat liver; dose 20 mg/kg iv, fluence 120 J cm^-2, 650 nm): 1.94 ± 0.04 mm; photodynamic activity in vivo (normal rat liver; in words): photodynamically active in vivo
5 | NCCS(=O)(=O)[O-].NCCS(=O)(=O)[O-].O.O.O.O.O.O.[Na+].[Na+].c1ccc2c(c1)C1=NC3=NC(=Nc4c5ccccc5c5[n]4[Ru][n]4c(c6ccccc6c4=N5)=NC2=N1)c1ccccc13 [RuPc(Tau)2 (Ex 3), Na2 [Ru(Pc)bis(taurine)]hexahydrate] | > 1.1 | 79800 | 634 | 5.05 | λmax Q ([2]; in methanol (M)): 623
6 | Cc1cc2c(cc1C)C1=Nc3c4cc(C)c(C)cc4c4[n]3[Ru][n]3c(c5cc(C)c(C)cc5c3=NC3=NC(=N4)c4cc(C)c(C)cc43)=NC2=N1.O=C(O)c1cncc(C(=O)O)c1.O=C(O)c1cncc(C(=O)O)c1 [Ru(oMe)8 Pc(35PDCA2)] | 1 | 63300 | 641 |  | PC50 (phototoxic concentration 50%) [1]: Inactive
7 | aluminium phthalocyanine sulphonate |  |  |  |  | rate of singlet oxygen production [3]: on the order of one or two logs better than some of the sensitizers listed
8 | O=C(O)c1cncc(C(=O)O)c1.O=C(O)c1cncc(C(=O)O)c1.c1ccc2c(c1)C1=NC2=Nc2c3ccccc3c3[n]2[Ru][n]2c(c4ccccc4c2=NC2=NC(=N3)c3ccccc32)=N1 [RuPc(35PDCA)2] | > 5.6 | 48400 | 632 | 4.74 | 
9 | O=C(O)c1ccncc1C(=O)O.O=C(O)c1ccncc1C(=O)O.c1ccc2c(c1)C1=NC2=Nc2c3ccccc3c3[n]2[Ru][n]2c(c4ccccc4c2=NC2=NC(=N3)c3ccccc32)=N1 [RuPc(34PDCA)2] | 47.6 | 58800 | 630 | 5.68 | 
10 | Nc1ccc(O)c(C(=O)O)c1.Nc1ccc(O)c(C(=O)O)c1.c1ccc2c(c1)C1=NC3=NC(=Nc4c5ccccc5c5[n]4[Ru][n]4c(c6ccccc6c4=N5)=NC2=N1)c1ccccc13 [RuPc(5AS)2] |  | 66500 |  | 5.70 | 
11 | NCCC(=O)[O-].NCCC(=O)[O-].[K+].[K+].c1ccc2c(c1)C1=NC3=NC(=Nc4c5ccccc5c5[n]4[Ru][n]4c(c6ccccc6c4=N5)=NC2=N1)c1ccccc13 [RuPc(β-ALA)2] |  | 105000 |  | 5.72 | 
12 | O=S(=O)([O-])c1cccc(P(c2cccc(S(=O)(=O)[O-])c2)c2cccc(S(=O)(=O)[O-])c2)c1.O=S(=O)([O-])c1cccc(P(c2cccc(S(=O)(=O)[O-])c2)c2cccc(S(=O)(=O)[O-])c2)c1.[Na+].[Na+].[Na+].[Na+].[Na+].[Na+].c1ccc2c(c1)C1=NC3=NC(=Nc4c5ccccc5c5[n]4[Ru][n]4c(c6ccccc6c4=N5)=NC2=N1)c1ccccc13 [RuPc(TPPTS)2] | > 15 | 87400 | 650 | 4.95 | 
13 | O=S(=O)([O-])c1cccc(P(c2ccccc2)c2ccccc2)c1.O=S(=O)([O-])c1cccc(P(c2ccccc2)c2ccccc2)c1.[K+].[K+].c1ccc2cc3c(cc2c1)C1=NC2=NC(=Nc4c5cc6ccccc6cc5c5[n]4[Ru][n]4c(c6cc7ccccc7cc6c4=N5)=NC3=N1)c1cc3ccccc3cc12 [RuNc(TPPMS)2] | 1.6 | 54000 | 734 | 5.57 | 
14 | O=C(O)c1cccnc1.O=C(O)c1cccnc1.c1ccc2cc3c(cc2c1)C1=NC3=Nc2c3cc4ccccc4cc3c3[n]2[Ru][n]2c(c4cc5ccccc5cc4c2=NC2=NC(=N3)c3cc4ccccc4cc32)=N1 [RuNc(Nic)2] | 22.2 | 169000 | 762 | 6.98 | 
